Data from US20110033376A1, “Treatment of Melanoma” (priority 2007, published 2011).

How the values were obtained:
WM266-4 melanoma cells [1] = assay: Apo-ONE Homogeneous Caspase-3/7 assay (induction of apoptosis); type: cell-based, human; conditions: WM266-4, 24 hours incubation; for EC50: caspase 3/7
Protocol: (§1) 3 human melanoma cell lines (A375, G-361, WM266-4) were maintained in RPMI 1640 culture medium (Sigma, UK) containing 10% (v/v) heat inactivated foetal bovine serum (Sigma, UK) and 2 mM […] at 37° C. in 5% humidified CO2. Cells were harvested, washed, re-suspended into growth medium and counted (Beckman-Coulter Vi-CELL XR). Cells were plated onto the middle 240 wells of 384 tissue culture plates at 1.6×10^5 to 2.4×10^5 cells/ml in 12.5 μl/well aliquots. 50 μl of growth media was aliquoted into the outer wells. 2 plates were prepared per cell line. Plates were incubated overnight at 37° C., in 5% humidified CO2.
(§2) Dexanabinol was prepared in growth medium at 2 times the final assay concentration at 125, 31.3, 7.81, 2.00, 0.49, 0.12, 0.031 and 0.008 μM (DMSO concentration was kept constant across the dilution range at 0.5%).
(§3) Cisplatin was used as a positive control. The final assays concentrations were 10, 2.5, 0.63, 0.156, 0.039, 0.010, 0.002 and 0.0006 μg/ml. […] 12.5 μl of growth media was added to the media control wells. The plates were incubated for 24 hours at 37° C., in 5% humidified CO2.
(§4) Caspase 3/7 levels were assessed by Apo-ONE© Homogeneous Caspase-3/7 assay kit. Fluorescence was measured using a FlexStation© II^384 plate reader at 1, 2, 3 and 4 hours after addition of the caspase substrate. The 4 hour readings were used for analysis.

A375 melanoma cells [2] = assay: as above; type: cell-based, human; conditions: A375, 24 hours incubation
Protocol: as §1, §2, §3, §4

G-361 melanoma cells [3] = assay: as above; type: cell-based, human; conditions: G-361, 24 hours incubation
Protocol: as §1, §2, §3, §4

WM266-4 melanoma cells [4] = assay: CellTiter-Blue cell viability assay; type: cell-based, human; conditions: WM266-4, 24 hours incubation; for IC50: CellTiter-Blue
Protocol: as §1, §2, §3
(§5) The cell viability assay was performed in parallel on the same plate for each line using CellTiter-Blue© (Promega) reagent. Briefly, 25 μl of CellTiter-Blue© (Promega) reagent was added to each well. The plates were shaken for 1 minute at 500 rpm and then incubated at 37° C., 5% CO2 for 4 hours.

A375 melanoma cells [5] = assay: CellTiter-Blue cell viability assay; type: cell-based, human; conditions: A375, 24 hours incubation; for IC50: CellTiter-Blue
Protocol: as §1, §2, §3, §5

G-361 melanoma cells [6] = assay: CellTiter-Blue cell viability assay; type: cell-based, human; conditions: G-361, 24 hours incubation; for IC50: CellTiter-Blue
Protocol: as §1, §2, §3, §5

A375 melanoma cells [7] = assay: Clonogenic assay, time-course effect on cell proliferation; type: cell-based, human; conditions: A375, 1 hour vs 24 hours exposure
Protocol: The time-course effect of dexanabinol on cell proliferation in one melanoma cell line, A375, was examined using the clonogenic assay method.
A375 cells were harvested from the growing cell culture and counted. Cells were diluted to 1.0×10^5/ml and seeded 2 ml/well to 6 well plates.
The cells were incubated overnight at 37° C. in humidified incubator 95% air+5% CO2.
The cells were treated with dexanabinol at 4 doses up to 20 μM at 3 exposure periods (1 hour, 6 hours and 24 hours).
After each exposure period, the cells were harvested from the wells by washing twice with PBS then adding 0.2 ml of single strength trypsin to each well and incubating at 37° C. until the cells detached. Cell suspensions were counted at 1/10 dilution and then diluted to 1/10, 1/100, 1/1000.
10 cm dishes (containing 7 ml fresh medium) were seeded with 3 different cell densities for dexanabinol treatment and control treatment. When colonies of suitable size formed in the control dishes, dishes were fixed, stained and counted.
Percentage survival in the dexanabinol treated A375 cells was calculated using the following equation: […]

[8] = tested on: human melanoma cell lines (A375, G-361, WM266-4); assay: Caspase 3/7 apoptosis induction, summary over melanoma cell lines; type: cell-based
Protocol: as §1, §2, §3, §4

UACC62 melanoma cells = assay: Sulforhodamine B (SRB) growth inhibition assay; type: cell-based, human; conditions: UACC62, 5-day exposure
Protocol: (§6) The ability of dexanabinol to inhibit melanoma cell growth was also studied in 3 melanoma cell lines (A375, UACC62, Malme-3M) using the Sulforhodamine B (SRB) assay.
(§7) Sterile solutions of the final concentrations of dexanabinol were prepared (0.001 μM to 100 μM in 0.5% DMSO).
(§8) The cells were incubated with drug concentrations in 0.5% DMSO (100 μl total volume per well) at 37° C. in 5% CO2 for 5 days. Control wells contained cells plus 0.5% DMSO plus medium.
(§9) The SRB growth inhibition assay was conducted over 24 and 5 day exposure periods. Following exposure, the cells were fixed, stained with SRB and read on a SpectorMax® 250 microplate spectrophotometer system plate reader.

A375 melanoma cells [9] = assay: Sulforhodamine B (SRB) growth inhibition assay; type: cell-based, human
Protocol: as §6, §7, §8, §9

[10] = tested on: all tested human melanoma cell lines; assay: In vitro cell proliferation assays, summary over all tested lines; type: cell-based
Protocol: as §5, §6, §9

[11] = Preliminary pharmacokinetic (PK) and maximum tolerated dose (MTD) study; type: in vivo, CD1 A375 tumour-bearing mice; conditions: CD1 mice
Protocol: (§10) Having established that dexanabinol inhibited melanoma cell proliferation in vitro, we then sought to establish whether the compound was active in vivo. A preliminary pharmacokinetic (PK) and maximum tolerated dose (MTD) study was carried out to determine whether therapeutically effective dose levels of dexanabinol could be achieved in CD1 A375 tumour-bearing mice. […] On the basis of this, a single-dose efficacy study was undertaken. Dexanabinol was diluted in a vehicle of 10% Cremophor/Ethanol (1:1 v/v) in saline. Control mice received vehicle alone.

[12] = tested on: A375 human tumour xenograft; assay: Single-dose efficacy study, human melanoma cell xenograft growth; type: in vivo; conditions: single dose 100 mg/kg i.v., CD1 nude mice bearing A375 xenograft
Protocol: as §10
10 mice received 100 mg/kg i.v. dexanabinol. 10 mice received Vehicle (10 ml/kg) Mice were implanted with 1×10^7 A375 human melanoma cells, in 50 μl of medium, on the flank. Once tumours were palpable (approx 5 mm×5 mm) 20 mice were treated with either dexanabinol or vehicle (as outlined above). […] Tumour size was measured 3 times a week after treatment. The treatment lasted 4 weeks

Malme-3M melanoma cells = assay: Sulforhodamine B (SRB) growth inhibition assay; type: cell-based; conditions: Homo sapiens, 120 h, 5-day exposure
Protocol: as §6, §7, §8, §9

[13] = tested on: 3 melanoma cell lines (A375, G-361, WM266-4); assay: CellTiter-Blue cytotoxic response, summary over 3 melanoma cell lines; type: cell-based; conditions: Homo sapiens, 24 h, read-out: IC50 of cytotoxic response
Protocol: Cells were harvested, washed, re-suspended into growth medium and counted (Beckman-Coulter Vi-CELL XR). […] 50 μl of growth media was aliquoted into the outer wells. 2 plates were prepared per cell line. Plates were incubated overnight at 37° C., in 5% humidified CO2.
The final assays concentrations were 10, 2.5, 0.63, 0.156, 0.039, 0.010, 0.002 and 0.0006 μg/ml. […] 12.5 μl of growth media was added to the media control wells. The plates were incubated for 24 hours at 37° C., in 5% humidified CO2.
The plates were shaken for 1 minute at 500 rpm and then incubated at 37° C., 5% CO2 for 4 hours.

With `N.N.[Cl][Pt][Cl]` [Cisplatin] the “Rank of apoptosis induction” value (WM266-4 melanoma cells [1]) was “*** (good apoptosis induction and decrease in proliferation (>70%))”, the EC50 (WM266-4 melanoma cells [1]) was 33.3 to 100 µM and the “Rank of apoptosis induction” value (A375 melanoma cells [2]) was “** (moderate apoptosis induction and decrease in proliferation (35-70%))”. For the same compound, the EC50 (A375 melanoma cells [2]; caspase 3/7) was 5.67 µM, the “Rank of apoptosis induction” value (G-361 melanoma cells [3]) was “** (moderate apoptosis induction and decrease in proliferation (35-70%))” and the EC50 (G-361 melanoma cells [3]; caspase 3/7) was 33.3 to 100 µM. The “Rank of decrease in proliferation (viability)” value (“Rank of decrease” below) (WM266-4 melanoma cells [4]) was “* (weak apoptosis induction and decrease in proliferation (<35%))”, the IC50 (WM266-4 melanoma cells [4]) was 62 µM and the “Rank of decrease” value (A375 melanoma cells [5]) was “** (moderate apoptosis induction and decrease in proliferation (35-70%))”. The IC50 (A375 melanoma cells [5]) was 21.8 µM, the “Rank of decrease” value (G-361 melanoma cells [6]) was “** (moderate apoptosis induction and decrease in proliferation (35-70%))” and the IC50 (G-361 melanoma cells [6]) was 18 µM.

In the case of `CCCCCCC(C)(C)c1cc(O)c2c(c1)OC(C)(C)[C@H]1CC=C(CO)C[C@H]21` [Dexanabinol, 1,1 dimethyl heptyl-(3S,4S)-7-hydroxy-Δ^6-tetrahydrocannabinol], the “Time dependence of cell killing” value (A375 melanoma cells [7]) is reported as “time-independent”, the EC50 (WM266-4 melanoma cells [1]; Homo sapiens, WM 266-4) is reported as 13 µM and the “Rank of apoptosis induction” value (WM266-4 melanoma cells [1]) is reported as “*** (good apoptosis induction and decrease in proliferation (>70%))”. The “Rank of apoptosis induction” value (A375 melanoma cells [2]) was “ND*** (good apoptosis induction and decrease in proliferation (>70%))”, the “Rank of apoptosis induction” value (G-361 melanoma cells [3]) was “ND* (weak apoptosis induction and decrease in proliferation (<35%))” and the “Concentration of peak response in apoptosis” value ([8]; 24 hours incubation, response dropped at the highest concentration) was 2.5 µM. For the same compound, the “Mode of cell death” value ([8]; caspase 3/7) was “induced apoptotic cell death in a caspase 3/7 dependent manner”, the GI50 (UACC62 melanoma cells; Homo sapiens, UACC-62, 120 h) was 18.5 µM and the GI50 (UACC62 melanoma cells) was 18.1 µM. For the same compound, the GI50 (A375 melanoma cells [9]; A375, 5-day exposure) was 14.4 µM, the GI50 (A375 melanoma cells [9]; Homo sapiens, A-375, 24 h, A375, 24-hour exposure) was 14.3 µM and the GI50 (A375 melanoma cells [9]; Homo sapiens, A-375, 120 h, A375, 5-day exposure) was 16.2 µM. The “Mean concentration at which profoundly cytotoxic” value ([10]; all tested human melanoma cell lines) was roughly 14, the “Drug concentrations at which in vitro anti-tumour effects were observed” value ([10]; in vitro) was 10 to 20 µM and the Plasma concentration ([11]; at the MTD, 100 mg/kg i.v. single dose) was 10 µM. The MTD ([11]; mouse, in vivo, iv, i.v. single dose) was 100 mg/kg, the “Effect on tumour xenograft growth” value [12] was “growth delaying effect” and the GI50 (Malme-3M melanoma cells) was 13.3 µM. The IC50 [13] was 10 to 21 µM, the IC50 (WM266-4 melanoma cells [4]; Homo sapiens, WM 266-4) was 20.9 µM and the “Rank of decrease” value (WM266-4 melanoma cells [4]) was “** (moderate apoptosis induction and decrease in proliferation (35-70%))”. The “Rank of decrease” value (A375 melanoma cells [5]) was “** (moderate apoptosis induction and decrease in proliferation (35-70%))”, the IC50 (A375 melanoma cells [5]; Homo sapiens, A-375) was 19.2 µM and the “Rank of decrease” value (G-361 melanoma cells [6]) was “*** (good apoptosis induction and decrease in proliferation (>70%))”. It also gave an IC50 (G-361 melanoma cells [6]; Homo sapiens) of 11 µM.
